Tests used:
[1] = system: S6 kinase (S6K1) phosphorylation in C2C12 cells; assay: Phosphorylation of the S6 kinase in C2C12 cells (ELISA pS6K T389), protein synthesis; format: cell-based, mouse; conditions: Mus musculus, C2C12, 2 h; for activity at 10 µM: read-out: Protein synthesis (percentage increase in S6K phosphorylation in muscle cells); for activity: test compounds and 20E reference (10 μM), read-out: S6K1 phosphorylation level
Method: After several experiments in which the C2C12 cells differentiated into myotubes were incubated in the presence of IGF-1 or 20E for 2 h 30 or 6 h, two screening tests were developed. Thus, the phosphorylation of the S6 protein kinase and the expression of the myostatin gene were studied in order to determine their modulation by a growth hormone or an ecdysone and to characterize these modulations from a statistical point of view.
The C2C12 myoblast cells (ATCC CRL-1772) are seeded into 6-well plates at a density of 170 000 cells per well and cultured in a DMEM medium containing glucose in a proportion of 4.5 g/l and supplemented with fetal calf serum (10%) and with antibiotics (penicillin and streptomycin). Forty-eight hours later, the myoblasts are induced to differentiate by partial serum depletion (2% instead of 10%) for 5 days. The cells are then placed in a medium which is glucose-depleted (DMEM containing 1 g/l of glucose) and serum-free in the presence of the test molecules or of the references (100 ng/ml IGF-1 or 10 μM 20E) for 2 h. At the end of the experiment, the cells are lysed in a commercial lysis buffer (Invitrogen FNN0011) supplemented with a commercial mixture of anti-proteases (Roche 05056489001). After centrifugation, the cytoplasmic fraction containing the soluble proteins is kept and the protein concentration is determined using a commercial kit (Biorad 500-0114), the principle of which is composed of assaying by the Lowry method. The assaying of the S6 kinase phosphorylation is carried out using a commercial ELISA (Enzyme Linked ImmunoSorbent Assay) kit (Cell signaling 7063). Briefly, 50 μg of protein lysate are deposited in the wells of a 96-well microplate and incubated overnight at 4° C. with the solution of antigen specific for the pS6 kinase threonine 389 antibody. The binding of the antigen to the bottom of the wells is done electrostatically. The solution of antibody to be assayed (pS6K T389) is then incubated at 37° C. in the wells for 2 hours. The antibodies bind specifically to the antigen. The wells are then washed with washing buffer in order to remove the antigen-specific primary antibodies to be assayed which are in excess. The third step consists in binding the detection antibody. The solution of detection antibodies is incubated at 37° C. in the wells for 1 hour. The wells are then washed in order to remove the excess detection antibodies. It should be noted that the detection antibodies are coupled to an enzyme which, in the presence of its substrate, converts it into a reaction product that can be detected and measured by virtue of the appearance of a coloration. […] The appearance of a blue coloration in the substrate indicates the presence of the antibody to be assayed. In order to prevent any saturation phenomenon, a stop solution (generally containing […]) is added and brings about a change in coloration, which goes from blue to yellow. The strength thereof is proportional to the amount of enzyme present and thus to the concentration of antibody sought. The strength of the signal is measured using spectrophotometry at a wavelength of 450 nm.

[2] = system: Soleus muscle of C57BL/6 mice subjected to a high-fat diet; assay: Mice subjected to a high-fat diet: weight and amount of proteins of the Soleus muscle; format: in vivo, C57BL/6J mice; conditions: 5 mg/kg orally; high-fat diet for 6 weeks; compared with the control group; FIG. 3B
Method: The 20E as comparative compound and the compounds according to the invention (Nos. 51 and 93) were administered orally, at a dose of 5 mg/kg of body weight, to 12-week-old C57BL/6J mice subjected to a high-fat diet for 6 weeks. The effect of the compounds on the weight and the amount of proteins of the Soleus muscle and also the transcripts of genes involved in myogenesis were evaluated.
The amount of proteins is determined by first lysing the muscles sampled in a 0.1N NaOH solution with the FastPrep technique. The proteins are quantified by means of a colorimetric assay derived from the Lowry method.
The in vivo study is carried out by evaluating the effect of 20E as comparative compound and of the molecules according to the invention (Nos. 51 and 93) administered orally, at a dose of 5 mg/kg of body weight, to C57BL/6 mice subjected to a high-fat diet for 6 weeks. The effect of the molecules on the weight and the amount of proteins of the Soleus muscle and also the transcripts of genes involved in myogenesis were evaluated.

Compound	activity at 10 µM [1]	activity [1]	amount of proteins of the Soleus muscle [2]
CCC(CC)C(=O)N(CCOC)C(C)[C@H]1CC[C@@]2(O)C3=CC(=O)[C@@H]4C[C@@H](O)[C@@H](O)C[C@]4(C)C3CC[C@]12C (stereo partly drawn) [Compound 51, 2-ethyl-N-(2-methoxyethyl)-N-[1-[(2S,3R,5R,10R,13R,14S,17S)-2,3,14-trihydroxy-10,13-dimethyl-6-oxo-2,3,4,5,9,11,12,15,16,17-decahydro-1H-cyclopenta[a]phenanthren-17-yl]ethyl]butanamide]	110 to 129%	~120%	–
CCSCC(=O)[C@H]1CC[C@@]2(O)C3=CC(=O)[C@@H]4C[C@@H](O)[C@@H](O)C[C@]4(C)C3CC[C@]12C (stereo partly drawn) [Compound 93, (2S,3R,5R,10R,13R,14S,17S)-17-(2-ethylsulfanylacetyl)-2,3,14-trihydroxy-10,13-dimethyl-2,3,4,5,9,11,12,15,16,17-decahydro-1H-cyclopenta[a]phenanthren-6-one]	> 130%	130 to 140%	significant increase
